What all share (assay type): functional, cell-based
For assay [1], the system named is P388. The assay is described as follows: Cytotoxicity against mouse P388 cells.
For assay [2], the system named is A549. Put plainly: Cytotoxicity against human A549 cells.
Assay [3] has as its system HT-29. The assay is described as follows: Cytotoxicity against human HT-29 cells.
In assay [4] the test system is SK-MEL-28. Put plainly: Cytotoxicity against human SK-MEL-28 cells.

For `CC[C@H](C)[C@@H](C(=O)N[C@H](C(=O)N(C)[C@@H](C(C)C)[C@@H](CC(=O)N1CCC[C@H]1[C@H](OC)[C@@H](C)C(=O)O[C@H](CO)Cc1ccccc1)OC)C(C)C)N(C)C` [MALEVAMIDE D], the IC50 in assay [1] was determined as 300 pM; in assay [2], 300 pM; in assay [3], 300 pM; in assay [4], 700 pM.
